Experimental data: patent US20100022562A1, “Use of Plant Growth Regulators to Reduce Abscisic Acid Related Plant Leaf Yellowing” (priority 2008, published 2010)
Each block holds one molecule with its values, some of them ahead of it.

Legend:
[1] = system: Pansy plants; test: Pansy yellow leaf number (leaf yellowing); assay type: in vivo
Experimental: (§1) All studies were conducted in the greenhouse at the research farm of Valent BioSciences Corporation (Long Grove, Ill.). Pansy plants were obtained either from local retailers as mature plants, or plugs from wholesale nurseries. Plugs of Pansy plants were transplanted into an 18-cell flat filled with Promix BX (available from Premier Horticulture Inc. Quakertown, Pa.) and grown for about 30 days prior to treatment. During growing periods, plants received daily irrigation and weekly fertilizer (1 g/L all purpose fertilizer 20-20-20, The Scotts Company, Marysville, Ohio).
(§2) Uniform plants were selected for the study. Prior to chemical treatment, plants were saturated with water and then drained for about two hours. A total of 20 mL chemical solution, which is equivalent to about 10% of the cell volume, was applied to each plant with 3 mL solution foliar applied to canopy and 17 mL solution drench applied to root zone. Unless specified, watering of plants was stopped after chemical treatment.
After chemical treatment, plants were arranged in a randomized complete block experimental design. The plants were rated daily for the extent of wilting on a scale from 1 (no wilting) to 4 (complete wilting) to generated a sales index rating. A rating of 2.5 was the point at which a plant was determined to be unmarketable and the previous day was recorded as the shelf life of that plant in days. […] Leaf transpiration rate was measured after treatment using a LI-1600 Steady State Porometer (LI-Cor, Lincoln, Nebr.). The transpiration rate of each treatment was calculated as the percentage of that of control at each day to reduce day-to-day variation caused by changes of environmental condition such as light intensity, humidity, and temperature.

[2] = system: Pansy plants; test: Pansy shelf life under drought (daily wilting rating, sales index); assay type: in vivo
Experimental: as §1, §2
After chemical treatment, plants were arranged in a randomized complete block experimental design. The plants were rated daily for the extent of wilting on a scale from 1 (no wilting) to 4 (complete wilting) to generated a sales index rating. A rating of 2.5 was the point at which a plant was determined to be unmarketable and the previous day was recorded as the shelf life of that plant in days. Yellow leaf number was counted at 3 days after chemical treatment. Leaf transpiration rate was measured after treatment using a LI-1600 Steady State Porometer (LI-Cor, Lincoln, Nebr.). The transpiration rate of each treatment was calculated as the percentage of that of control at each day to reduce day-to-day variation caused by changes of environmental condition such as light intensity, humidity, and temperature.

[3] = 0.3 mg, Matrix Orange, drought, 3 d after treatment, Table 2
[4] = 3 mg, Matrix Orange, drought, 3 d after treatment, Table 2
[5] = 0.3 mg, Matrix Orange, drought, Table 2
[6] = 3 mg, Matrix Orange, drought, Table 2

- Yellow leaf number ([1]; 3 mg, Delta Premium Pure Golden Yellow, advanced seedling stage (1 month old), drought, 3 d after treatment, Table 4): 8.2
- Yellow leaf number ([1]; 3 mg, Delta Premium Pure Golden Yellow, drought, 3 d after treatment, Table 3): 7.5
- Yellow leaf number ([1]; 30 mg, Delta Premium Pure Golden Yellow, advanced seedling stage (1 month old), drought, 3 d after treatment, Table 4): 8.8
- Yellow leaf number ([1]; 30 mg, Delta Premium Pure Golden Yellow, drought, 3 d after treatment, Table 3): 8.0
SMILES: C/C(C#C[C@]1(O)C(C)CC(=O)CC1(C)C)=C/CO (some centres unmarked) [PBI-51]
- Shelf life ([2]; 3 mg, Delta Premium Pure Golden Yellow, advanced seedling stage (1 month old), drought, Table 4): 3.7 days
- Shelf life ([2]; 3 mg, Delta Premium Pure Golden Yellow, drought, Table 3): 5.0 days
- Shelf life ([2]; 30 mg, Delta Premium Pure Golden Yellow, advanced seedling stage (1 month old), drought, Table 4): 3.5 days
- Shelf life ([2]; 30 mg, Delta Premium Pure Golden Yellow, drought, Table 3): 5.0 days

- Yellow leaf number [1, 3]: 9.2
- Yellow leaf number [1, 4]: 11.5
SMILES: COC(=O)C=C(C)C=CC1(O)c2ccccc2C(=O)CC1(C)C (mixture of isomers) [PBI-488, tetralone, ester]
- Shelf life [2, 5]: 5.3 days
- Shelf life [2, 6]: 7.0 days

- Yellow leaf number ([1]; 30 mg, Matrix Yellow, drought, 3 d after treatment, Table 10): 8.7
SMILES: CCOC(=O)C1CC(=O)C(=C(O)C2CC2)C(=O)C1 (centres unmarked) [TE, trinexapac-ethyl]
- Shelf life ([2]; 30 mg, Matrix Yellow, drought, Table 10): 2.5 days

Second part, the molecule before the results:

SMILES: COC(=O)C=C(C)C#CC1(O)c2ccccc2C(=O)CC1(C)C (mixture of isomers) [PBI-702, tetralone, first carbon tail acetylene, ester]
- Yellow leaf number [1, 3]: 10.8
- Yellow leaf number [1, 4]: 11.0
- Shelf life [2, 5]: 4.7 days
- Shelf life [2, 6]: 7.0 days

SMILES: O=C(Nc1ccccc1)Nc1ccnc(Cl)c1 [CPPU, N1-(2-chloro-4-pyridyl)-N3-phenylurea]
- Yellow leaf number ([1]; 0.02 mg CPPU, Matrix Yellow, 3 d after treatment, Table 6): 7.7
- Yellow leaf number ([1]; 0.2 mg CPPU, Matrix Yellow, 3 d after treatment, Table 6): 5.7
- Shelf life ([2]; 0.02 mg CPPU, Matrix Yellow, Table 6): 3.2 days
- Shelf life ([2]; 0.2 mg CPPU, Matrix Yellow, Table 6): 2.8 days

SMILES: COC(=O)C=C(C)C=CC1(O)C(C)=CC(=O)CC1(C)C1CC1 (centres unmarked) [PBI-696, 8′ cyclopropane ester]
- Yellow leaf number [1, 3]: 9.0
- Shelf life [2, 5]: 5.3 days
- Shelf life [2, 6]: 7.8 days

SMILES: C#CC1(C)CC(=O)C=C(C)C1(O)C=CC(C)=CC(=O)O (centres unmarked) [PBI-524, 8′ acetylene-ABA, acid]
- Yellow leaf number [1, 3]: 11.0
- Yellow leaf number [1, 4]: 11.2
- Shelf life [2, 5]: 6.5 days
- Shelf life [2, 6]: 8.8 days

SMILES: CC1=CC1 [MCP, 1-methylcyclopropene]
- Yellow leaf number ([1]; 10 μL L^−1 MCP (12 hours) at 0 hrs, Delta Premium Pure White, 3 days after treatment, Table 22): 1.8
- Yellow leaf number ([1]; 10 μL L^−1 MCP (12 hours) at 0 hrs, Delta Premium Pure White, 7 days after treatment, Table 22): 4.0
- Yellow leaf number ([1]; 10 μL L^−1 MCP (12 hours) at +24 hrs, Delta Premium Pure White, 3 days after treatment, Table 22): 2.2
- Yellow leaf number ([1]; 10 μL L^−1 MCP (12 hours) at +24 hrs, Delta Premium Pure White, 7 days after treatment, Table 22): 4.0
- Yellow leaf number ([1]; 10 μL L^−1 MCP (12 hours) at −24 hrs, Delta Premium Pure White, 3 days after treatment, Table 22): 2.0
- Yellow leaf number ([1]; 10 μL L^−1 MCP (12 hours) at −24 hrs, Delta Premium Pure White, 7 days after treatment, Table 22): 4.0
- Yellow leaf number ([1]; 10 μL L^−1 MCP for 12 hours, Colossus Formula Mix, 3 days after treatment, Table 20): 0.2
- Yellow leaf number ([1]; 10 μL L^−1 MCP for 12 hours, Colossus Formula Mix, 8 days after treatment, Table 20): 1.7
- Yellow leaf number ([1]; 10 μL L^−1 MCP for 24 hours, Delta Premium Pure White, 3 days after treatment, Table 21): 0.0
- Yellow leaf number ([1]; 10 μL L^−1 MCP for 24 hours, Delta Premium Pure White, 8 days after treatment, Table 21): 0.7
- Yellow leaf number ([1]; 10 μL L^−1 MCP, Delta Premium Pure White, 3 days after treatment, Table 23): 3.2
- Yellow leaf number ([1]; 10 μL L^−1 MCP, Delta Premium Pure White, 7 days after treatment, Table 23): 6.7
- Shelf life ([2]; 10 μL L^−1 MCP (12 hours) at 0 hrs, Delta Premium Pure White, Table 22): 4.0 days
- Shelf life ([2]; 10 μL L^−1 MCP (12 hours) at +24 hrs, Delta Premium Pure White, Table 22): 4.0 days
- Shelf life ([2]; 10 μL L^−1 MCP (12 hours) at −24 hrs, Delta Premium Pure White, Table 22): 4.0 days
- Shelf life ([2]; 10 μL L^−1 MCP for 12 hours, Colossus Formula Mix, no water, Table 20): 4.2 days
- Shelf life ([2]; 10 μL L^−1 MCP for 24 hours, Delta Premium Pure White, Table 21): 7.0 days
- Shelf life ([2]; 10 μL L^−1 MCP, Delta Premium Pure White, Table 23): 4.5 days
